Measured values reported in patent US11617850B2, “Delivery systems and methods for electric plasma synthesis of nitric oxide” (The General Hospital Corporation, priority 2016, dated 2023).

Assays:
[1] = system: awake sheep with acute pulmonary hypertension, due to U46619 infusion; assay: Inhaled electrically generated NO in awake sheep with acute pulmonary hypertension due to U46619 infusion; format: in vivo
Source text: Animal studies were approved by the Institutional Animal Care and Use Committee of Massachusetts General Hospital (Boston, Mass.). The NO generator 102 of the NO generation system 100 was coupled to a tracheostomy tube in a spontaneously breathing awake 35 kg sheep.
To induce pulmonary hypertension, a potent pulmonary vasoconstrictor U46619 (Cayman Chemical, Ann Arbor, Mich.), the analog of the endoperoxide prostaglandin H2, was infused intravenously to increase pulmonary arterial pressure (PAP) to 30 mmHg. The pulmonary arterial pressure and PAP was continuously monitored using a Gould 6600 amplifier system (Gould Electronics, Inc., Eastlake, Ohio).
In turn, the electric plasma discharge of the electrodes supplied NO gas to the spontaneously breathing awake sheep during those 0.8 seconds.
Turning to FIGS. 11 and 12, the above-described operation of the NO system 200 (i.e., triggering the NO generator 102 for approximately 0.8 second during early inspiration, for example, 20 milliseconds after commencement of inspiration) was implemented during a NO exposure time 700. Prior to and following the NO exposure time 700, a baseline was generated. The NO generator 102 was configured to output approximately 20 ppm of NO for three different runs (FIG. 11) and was configured to output 5 ppm of NO for another run (FIG. 12).
In addition to PAP, the arterial oxygen saturation was also measured as a function of time in the awake sheep. […] Lastly, the relative arterial oxygen saturation was calculated as a function of time for all four periods of NO inhalation.

[2] = system: mice (C57BL6 male WT); assay: Mice breathing air or electrically generated 50 ppm NO in air for 28 days; format: in vivo; settings: 50 ppm NO in air
Source text: A second chamber 802 was supplied with 50 ppm of NO gas in air, generated by a spark plug generator using platinum-iridium electrodes and subsequently scavenged using 75 g Ca(OH). A plurality of mice (C57BL6 male WT) breathed the NO laden air for the same 28 day period. During the 28 day test, humidity, CO2, O2, NO, and NO2 were monitored intermittently.
Throughout the 28 day test, the mice were weighed in weekly intervals to track a change in the body weight of the mice throughout the 28 day test. […] Once the 28 day test was complete, lung specimens from the mice were analyzed using a high resolution magnetic sector field inductively coupled mass spectrometer (Thermo Fisher, Bremen, Germany).

For [N]=O [NO, nitric oxide], which “arterial oxygen saturation (SaO2) during the NO exposure time” value ([1]; 5 ppm NO inhaled) is on record?
The value was “generally constant”.

And the “effect on pulmonary artery pressure (PAP) during the NO exposure time” value ([1]; 5 ppm NO inhaled, one run)?
Its value is “does not show a measurable effect”.

And the “arterial oxygen saturation (SaO2) during the NO exposure time” value ([1]; 20 ppm NO inhaled)?
Its value is “increases”.

What about the “improvement of relative arterial oxygen saturation during the NO exposure time” value ([1]; 20 ppm NO inhaled, three trials) of the same molecule?
Its value is “approximately 10%”.

And the “lung histology (H&E staining of larynx, trachea, main bronchus, lung tissues)” value [2]?
The value was “no evidence of lung inflammation or pathology”.

What about the “iridium and platinum in lung specimens versus control mice (ICP mass spectrometry)” value ([2]; platinum-iridium electrodes, Ca(OH) scavenger) of the same molecule?
Its value is “no detectable difference”.

What about the “body weight gain versus mice breathing air” value ([2]; weighed weekly) of the same molecule?
Its value is “did not differ”.
